What was measured:
[1] = tested on: MIAPaCa-2 human pancreatic tumor cells; assay: Xenogeneic mouse human pancreatic cancer model, tumors harvested at mortality (size, weight, vasculature, palpation); type: in vivo, NOD scid gamma (NSG) mice; settings: Example 1, single agents: Group 2 Coenzyme Q10 IV 50 mg/kg/day; Group 3 gemcitabine 150 mg/kg/week; FIG. 2
[2] = tested on: MIAPaCa-2 human pancreatic tumor cells; assay: Xenogeneic mouse human pancreatic cancer model, survival; type: in vivo, NOD scid gamma (NSG) mice; settings: Example 1, Regimen 1, single agent: IV 4% Coenzyme Q10 50 mg/kg/day, or IV gemcitabine 150 mg/kg/week for 3 weeks with one week rest; FIG. 1
[3] = tested on: Mycosis fungoides (cutaneous T Cell lymphoma); settings: methotrexate as a single agent; cited from earlier work
[4] = tested on: acute lymphoblastic leukemias; settings: in combination with 60 mg/m^2 of prednisone, given daily; usually within 4 to 6 weeks; cited from earlier work

Question: With `Nc1ccn([C@@H]2O[C@H](CO)[C@@H](O)C2(F)F)c(=O)n1` [gemcitabine, reference compound] as the compound, how does the “Growth of pancreatic tumors (tumor size at time of death) vs control” value [1] read?
Answer: inhibited the growth of pancreatic tumors

Question: What about the “Survival (prolongation of life) compared to untreated control” value [2] of the same compound?
Answer: prolongation of life as compared to untreated control

Question: For `CN(Cc1cnc2nc(N)nc(N)c2n1)c1ccc(C(=O)N[C@@H](CCC(=O)O)C(=O)O)cc1` [Methotrexate], which “Clinical responses, patients treated” value [3] is on record?
Answer: 50% of patients treated. Dosage in early stages is usually 5 to 50 mg once

Question: What about the “Remissions, patients treated” value [4] of the same compound?
Answer: prednisone, given daily, produced remissions in 50% of patients treated,

Reference: US10933032B2, “Methods for the treatment of cancer using coenzyme Q10 combination therapies” (Berg LLC, priority 2013, dated 2021)
